What all share (test): relative viability (nuclei count vs DMSO), 5 days (fraction); higher = more cells survive
Compound in one experiment: CS(=O)(=O)N1CCN(Cc2cc3nc(-c4cccc5[nH]ncc45)nc(N4CCOCC4)c3s2)CC1 [Pictilisib]
In a few lines: (§1)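 Five library-drug doses, separated by factors of √10, were pinned into 1536-well plates holding lung cancer cell lines after an overnight stay at 37 °C. Cells were fixed, permeabilised and Hoechst-stained in one step after 5 days without medium change, then imaged at 4×. Viability compares treated-well with vehicle-well nuclei, counted in MetaXpress, as a median across plates. Passing plates had control CV below 25% and at least one doubling.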

Compound in another experiment: NC1(c2ccc(-c3nc4ccn5c(=O)[nH]nc5c4cc3-c3ccccc3)cc2)CCC1 [MK-2206]
A digest of the protocol: as §1

Compound in the experiment “MK-2206 + Crizotinib”: NC1(c2ccc(-c3nc4ccn5c(=O)[nH]nc5c4cc3-c3ccccc3)cc2)CCC1 [MK-2206] + C[C@@H](Oc1cc(-c2cnn(C3CCNCC3)c2)cnc1N)c1c(Cl)ccc(F)c1Cl [Crizotinib] (partner 1 µM)
A digest of the protocol: (§2)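 Lung cancer cell lines were seeded in 1536-well plates and dosed by pin tool the next day, with either a single drug or a fixed anchor-drug dose combined with five library-drug doses (not always all listed) spaced in √10 steps. Five days later, one step fixed the cells and stained their nuclei (final 0.05% Triton X-100, 1% formaldehyde, 1 ug/ml Hoechst), and nuclei were counted on 4× images. Relative viability is the nuclei count in treated wells divided by the count in vehicle wells, and each value is the median of duplicate plates.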

Compound in the experiment “Pictilisib + Linsitinib”: CS(=O)(=O)N1CCN(Cc2cc3nc(-c4cccc5[nH]ncc45)nc(N4CCOCC4)c3s2)CC1 [Pictilisib] + C[C@]1(O)C[C@@H](c2nc(-c3ccc4ccc(-c5ccccc5)nc4c3)c3c(N)nccn32)C1 [Linsitinib] (partner 1 µM)
A digest of the protocol:
as §2

Take UMC-11: the relative viability is 0.989 in the experiment with Pictilisib (0.02 µM); 1.14 with Pictilisib (0.06325 µM); 1.07 in the experiment with Pictilisib (0.6325 µM); 0.846 with Pictilisib (1 µM, anchor plate); 0.937 in the experiment with Pictilisib (2 µM); 0.94 in the experiment with MK-2206 (0.01 µM). Also, the relative viability with MK-2206 (0.03162 µM) was found to be 1.02; with MK-2206 (0.3162 µM), 1.07; with MK-2206 (1 µM) it was 0.937; with MK-2206 + Crizotinib (first compound 0.01 µM) it was 0.61; with MK-2206 + Crizotinib (first compound 0.03162 µM) it was 0.569; with MK-2206 + Crizotinib (first compound 0.3162 µM), 0.603. For the same cell line, the relative viability came out at 0.707 with MK-2206 + Crizotinib (first compound 1 µM); 0.973 with Pictilisib + Linsitinib (first compound 0.02 µM); 1.03 in the experiment with Pictilisib + Linsitinib (first compound 0.06325 µM); 1.07 with Pictilisib + Linsitinib (first compound 0.6325 µM); 0.928 with Pictilisib + Linsitinib (first compound 2 µM).

The values above are taken from the supplement of paper PMC10307832.
